According to patent US10149839B2, “Chemical compounds” (AstraZeneca AB, priority 2016, dated 2018):
pIC50: −log10 of the molar value. ≈ marks a conversion by molar mass, not a printed value.

Key:
[1] = molecular target: Estrogen Receptor (ERα) in MCF-7 cells (Homo sapiens (Human), UniProt P03372); test: MCF-7 ER down-regulation assay (immuno-fluorescence); assay type: cell-based; settings: for pIC50: 18-22 hours incubation; for % downregulation: shown in brackets where not >90%
[2] = Thermodynamic solubility (shake flask); assay type: physicochemical; settings: aqueous phosphate buffer pH 7.4, 24 hours
physchem = settings: 1-octanol/aqueous buffer, pH 7.4
[3] = Human plasma protein binding (equilibrium dialysis); assay type: in vitro ADME; settings: dialysis 18 hours
[4] = aqueous phosphate buffer, 25 °C, pH 7.4, aqueous buffer, thermodynamic from solid

Estrogen Receptor (ERα) in MCF-7 cells, sequence (P03372 whole entry): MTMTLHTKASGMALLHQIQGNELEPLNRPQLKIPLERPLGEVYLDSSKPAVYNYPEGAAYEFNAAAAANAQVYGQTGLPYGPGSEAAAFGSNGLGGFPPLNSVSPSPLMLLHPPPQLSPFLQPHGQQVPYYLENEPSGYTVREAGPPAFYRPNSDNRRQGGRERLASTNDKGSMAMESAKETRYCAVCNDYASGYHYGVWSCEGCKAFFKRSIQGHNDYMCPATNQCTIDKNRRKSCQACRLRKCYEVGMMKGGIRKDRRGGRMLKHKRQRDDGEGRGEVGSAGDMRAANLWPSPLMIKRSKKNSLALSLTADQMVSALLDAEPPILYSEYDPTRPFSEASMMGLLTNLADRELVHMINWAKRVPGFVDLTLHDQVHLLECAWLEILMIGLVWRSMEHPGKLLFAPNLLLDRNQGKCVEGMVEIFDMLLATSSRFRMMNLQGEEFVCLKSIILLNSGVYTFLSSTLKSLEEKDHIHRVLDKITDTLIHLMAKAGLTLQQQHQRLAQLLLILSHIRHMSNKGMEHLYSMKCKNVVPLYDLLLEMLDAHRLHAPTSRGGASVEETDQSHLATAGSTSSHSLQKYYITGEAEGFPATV

| pIC50 [1] | solubility at 24 h [2, 4] [µM] | logD (physchem) | Human plasma protein binding (% free) [3] [% free] | % downregulation [1] | solubility at 24 h ([2]; 25° C.) [µM] | Compound |
| --- | --- | --- | --- | --- | --- | --- |
| 9.00 | > 1000 | 2 | 20 |  |  | COc1cc(NCCNCCCF)ncc1[C@@H]1c2[nH]c3ccccc3c2C[C@@H](C)N1CC1(F)COC1 [Example 66, N1-(5-((1R,3R)-2-((3-fluorooxetan-3-yl)methyl)-3-methyl-2,3,4,9-tetrahydro-1H-pyrido[3,4-b]indol-1-yl)-4-methoxypyridin-2-yl)-N2-(3-fluoropropyl)ethane-1,2-diamine] |
| 7.96 | 354 (≈ 171 µg/mL) | 2.9 | 2.7 | (48%) |  | C[C@H](COc1ccc([C@@H]2c3[nH]c4ccccc4c3C[C@@H](C)N2CC2(F)COC2)cc1)NCCCF [Example 28, 3-fluoro-N-((R)-1-(4-((1R,3R)-2-((3-fluorooxetan-3-yl)methyl)-3-methyl-2,3,4,9-tetrahydro-1H-pyrido[3,4-b]indol-1-yl)phenoxy)propan-2-yl)propan-1-amine] |
| 9.29 | 877 (≈ 425 µg/mL) | 2.4 | 8.5 |  |  | COc1cc(OCCNCCCF)ncc1[C@@H]1c2[nH]c3ccccc3c2C[C@@H](C)N1CC1(F)CC1 [Example 37, 3-fluoro-N-(2-((5-((1R,3R)-2-((1-fluorocyclopropyl)methyl)-3-methyl-2,3,4,9-tetrahydro-1H-pyrido[3,4-b]indol-1-yl)-4-methoxypyridin-2-yl)oxy)ethyl)propan-1-amine] |
| 10.07 | 629 (≈ 319 µg/mL) | 2.6 | 3.9 | (85%) |  | C[C@@H]1Cc2c([nH]c3ccccc23)[C@@H](c2c(F)cc(OCCNCCCF)cc2F)N1CC(C)(F)CO (single isomer, unassigned) [Example 17] |
| 9.39 | 11 (≈ 5.56 µg/mL) | > 4.4 | 0.56 | (68%) |  | CC(CNCCCF)Oc1cc(F)c([C@@H]2c3[nH]c4ccccc4c3C[C@@H](C)N2CC(C)(C)F)c(F)c1 (stereo partly drawn) [Example 19, 2-(3,5-difluoro-4-((1R,3R)-2-(2-fluoro-2-methylpropyl)-3-methyl-2,3,4,9-tetrahydro-1H-pyrido[3,4-b]indol-1-yl)phenoxy)-N-(3-fluoropropyl)propan-1-amine] |
| 9.62 | 24 (≈ 11.4 µg/mL) | 3.4 | 1.3 |  |  | COc1cc(NCCNCCCF)ccc1[C@@H]1c2[nH]c3ccccc3c2C[C@@H](C)N1CC(F)F [Example 61, N1-(4-((1R,3R)-2-(2,2-difluoroethyl)-3-methyl-2,3,4,9-tetrahydro-1H-pyrido[3,4-b]indol-1-yl)-3-methoxyphenyl)-N2-(3-fluoropropyl)ethane-1,2-diamine] |
| 9.44 |  | 3 | 1.6 |  | 135 (≈ 62 µg/mL) | C[C@@H]1Cc2c([nH]c3ccccc23)[C@@H](c2ccc(OCCNCCCF)cc2)N1CC(F)CF (single isomer, unassigned) [Example 25] |
| 8.74 | 268 (≈ 123 µg/mL) | > 3.6 | 1.4 |  |  | Cc1cc(OCCNCCCF)ncc1[C@@H]1c2[nH]c3ccccc3c2C[C@@H](C)N1CC(F)F [Example 63, N-(2-((5-((1R,3R)-2-(2,2-difluoroethyl)-3-methyl-2,3,4,9-tetrahydro-1H-pyrido[3,4-b]indol-1-yl)-4-methylpyridin-2-yl)oxy)ethyl)-3-fluoropropan-1-amine] |
| 9.57 | 35 (≈ 16.1 µg/mL) | 4 | 0.41 |  |  | C[C@@H]1Cc2c([nH]c3ccccc23)[C@@H](c2ccc(OCCNCCCF)cc2)N1CC(C)(F)F [Example 57, N-(2-(4-((1R,3R)-2-(2,2-difluoropropyl)-3-methyl-2,3,4,9-tetrahydro-1H-pyrido[3,4-b]indol-1-yl)phenoxy)ethyl)-3-fluoropropan-1-amine] |
| 9.06 | 607 (≈ 272 µg/mL) | 2.4 | 11 |  |  | C[C@@H]1Cc2c([nH]c3ccccc23)[C@@H](c2cnc(OCCNCCCF)cn2)N1CC(F)F [Example 70, N-(2-((5-((1S,3R)-2-(2,2-difluoroethyl)-3-methyl-2,3,4,9-tetrahydro-1H-pyrido[3,4-b]indol-1-yl)pyrazin-2-yl)oxy)ethyl)-3-fluoropropan-1-amine] |
| 7.66 | 554 (≈ 252 µg/mL) | 2.7 | 5.3 | (89%) |  | C[C@@H]1Cc2c([nH]c3ccccc23)[C@@H](c2ccc(OCCNCCCF)cn2)N1CC1(F)CC1 [Example 31, 3-fluoro-N-(2-((6-((1S,3R)-2-((1-fluorocyclopropyl)methyl)-3-methyl-2,3,4,9-tetrahydro-1H-pyrido[3,4-b]indol-1-yl)pyridin-3-yl)oxy)ethyl)propan-1-amine] |
| 8.48 | 244 (≈ 111 µg/mL) | 3 | 3.0 | (87%) |  | C[C@@H]1Cc2c([nH]c3ccccc23)[C@@H](c2ccc(OCCNCCCF)nc2)N1CC1(F)CC1 [Example 33, 3-fluoro-N-(2-((5-((1R,3R)-2-((1-fluorocyclopropyl)methyl)-3-methyl-2,3,4,9-tetrahydro-1H-pyrido[3,4-b]indol-1-yl)pyridin-2-yl)oxy)ethyl)propan-1-amine] |
| 8.21 | 787 (≈ 370 µg/mL) | 2.5 | 11 |  |  | C[C@@H]1Cc2c([nH]c3ccccc23)[C@@H](c2ccc(OCCNCCCF)nc2)N1CC1(F)COC1 [Example 34, 3-fluoro-N-(2-((5-((1R,3R)-2-((3-fluorooxetan-3-yl)methyl)-3-methyl-2,3,4,9-tetrahydro-1H-pyrido[3,4-b]indol-1-yl)pyridin-2-yl)oxy)ethyl)propan-1-amine] |
| 9.27 | 820 (≈ 392 µg/mL) | 2 | 15 |  |  | C[C@@H]1Cc2c([nH]c3ccccc23)[C@@H](c2cnc(OCCNCCCF)cn2)N1CC(F)(F)CO [Example 69, 2,2-difluoro-3-((1S,3R)-1-(5-(2-((3-fluoropropyl)amino)ethoxy)pyrazin-2-yl)-3-methyl-1,3,4,9-tetrahydro-2H-pyrido[3,4-b]indol-2-yl)propan-1-ol] |
| 8.82 | 281 (≈ 136 µg/mL) | 3 | 5.2 | (79%) |  | C[C@@H]1Cc2c([nH]c3ccccc23)[C@@H](c2ccc(OC[C@H](C)NCCCF)cc2)N1CC1(F)COC1 [Example 27, 3-fluoro-N-((S)-1-(4-((1R,3R)-2-((3-fluorooxetan-3-yl)methyl)-3-methyl-2,3,4,9-tetrahydro-1H-pyrido[3,4-b]indol-1-yl)phenoxy)propan-2-yl)propan-1-amine] |
| 6.64 | 328 (≈ 150 µg/mL) | 2.5 | 7.2 |  |  | C[C@@H]1Cc2c([nH]c3ccccc23)[C@@H](c2ncc(OCCNCCCF)cn2)N1CC(C)(C)F [Example 39, 3-fluoro-N-(2-((2-((1S,3R)-2-(2-fluoro-2-methylpropyl)-3-methyl-2,3,4,9-tetrahydro-1H-pyrido[3,4-b]indol-1-yl)pyrimidin-5-yl)oxy)ethyl)propan-1-amine] |
| 7.39 | 980 (≈ 461 µg/mL) | 2.1 | 16 |  |  | C[C@@H]1Cc2c([nH]c3ccccc23)[C@@H](c2ccc(OCCNCCCF)cn2)N1CC1(F)COC1 [Example 32, 3-fluoro-N-(2-((6-((1S,3R)-2-((3-fluorooxetan-3-yl)methyl)-3-methyl-2,3,4,9-tetrahydro-1H-pyrido[3,4-b]indol-1-yl)pyridin-3-yl)oxy)ethyl)propan-1-amine] |
| 9.15 | 108 (≈ 53 µg/mL) | > 3.6 | 0.19 | (85%) |  | COc1nc(OCCNCCCF)ccc1[C@@H]1c2[nH]c3ccccc3c2C[C@@H](C)N1CC(C)(F)F [Example 77, N-(2-((5-((1R,3R)-2-(2,2-difluoropropyl)-3-methyl-2,3,4,9-tetrahydro-1H-pyrido[3,4-b]indol-1-yl)-6-methoxypyridin-2-yl)oxy)ethyl)-3-fluoropropan-1-amine] |
| 9.32 | 149 (≈ 70.3 µg/mL) | 3.4 | 2.1 |  |  | C[C@@H]1Cc2c([nH]c3ccccc23)[C@@H](c2ccc(OCCNCCCF)cc2F)N1CC1(F)CC1 [Example 21, 3-fluoro-N-(2-(3-fluoro-4-((1R,3R)-2-((1-fluorocyclopropyl)methyl)-3-methyl-2,3,4,9-tetrahydro-1H-pyrido[3,4-b]indol-1-yl)phenoxy)ethyl)propan-1-amine] |
| 8.74 | 760 (≈ 367 µg/mL) | 2.9 | 7.8 |  |  | COc1cc(NCCNCCCF)ccc1[C@@H]1c2[nH]c3ccccc3c2C[C@@H](C)N1CC1(F)CC1 [Example 60, N1-(4-((1R,3R)-2-((1-fluorocyclopropyl)methyl)-3-methyl-2,3,4,9-tetrahydro-1H-pyrido[3,4-b]indol-1-yl)-3-methoxyphenyl)-N2-(3-fluoropropyl)ethane-1,2-diamine] |
